Reference: patent publication US20160297833A1, “THIENOPYRIMIDINES AS MKNK1 AND MKNK2 INHIBITORS” (BAYER PHARMA AKTIENGESELLSCHAFT, priority 2013, published 2016)
pIC50: −log10 of the molar value.

target: T1, human full-length MKNK1 (Homo sapiens, UniProt Q9BUB5, T385D); assay: MKNK1 kinase high ATP assay (TR-FRET); assay type: biochemical; settings: Table 1; MKNK1 kinase high ATP assay, 2 mM ATP; read-out: MKNK1 IC50
T1 construct: GST (N); purchased Carna Biosciences 02-145; host or cells: insect cells (baculovirus expression system)
Summary of the method: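 Full-length human MKNK1 (T385D) preincubated 15 min at 22 °C with compound in HEPES pH 7.5/MgCl2/DTT buffer; reaction with 2 mM ATP (final) and 0.06 μM biotinylated peptide (final), 30 min at 22 °C.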

T1 sequence (Q9BUB5 1-424 isoform Q9BUB5-2 T344D): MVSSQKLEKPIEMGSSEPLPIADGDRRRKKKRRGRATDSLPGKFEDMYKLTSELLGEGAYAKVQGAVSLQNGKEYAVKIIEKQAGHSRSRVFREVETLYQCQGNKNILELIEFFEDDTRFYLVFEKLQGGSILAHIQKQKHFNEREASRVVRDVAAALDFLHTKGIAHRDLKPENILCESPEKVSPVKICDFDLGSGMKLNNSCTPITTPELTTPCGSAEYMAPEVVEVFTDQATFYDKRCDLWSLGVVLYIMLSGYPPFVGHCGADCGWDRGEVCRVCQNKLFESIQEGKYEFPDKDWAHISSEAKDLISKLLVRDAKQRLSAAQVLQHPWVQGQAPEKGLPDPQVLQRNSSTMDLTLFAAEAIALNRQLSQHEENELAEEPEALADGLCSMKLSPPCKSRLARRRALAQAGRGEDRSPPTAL

SMILES	pIC50
C[C@@H](CN)Oc1cc2[nH]ncc2cc1Nc1ncnc2sc3c(c12)CC[C@H](C(=O)N1CCOC[C@@H]1C)C3 [Example 145, {(7S)-4-[(6-{[(2S)-1-Aminopropan-2-yl]oxy}-1H-indazol-5-yl)amino]-5,6,7,8-tetrahydro[1]benzothieno[2,3-d]pyrimidin-7-yl}[(3S)-3-methylmorpholin-4-yl]methanone]	8.29
C[C@H](N)COc1cc2[nH]ncc2cc1Nc1ncnc2sc3c(c12)CC[C@H](C(=O)N1CCOC[C@H]1C)C3 [Example 146, {(7S)-4-[(6-{[(2S)-2-Aminopropyl]oxy}-1H-indazol-5-yl)amino]-5,6,7,8-tetrahydro[1]benzothieno[2,3-d]pyrimidin-7-yl}[(3R)-3-methylmorpholin-4-yl]methanone]	7.88
C[C@@H](N)COc1cc2[nH]ncc2cc1Nc1ncnc2sc3c(c12)CC[C@H](C(=O)N(C)C)C3 [Example 147, (7S)-4-[(6-{[(2R)-2-Aminopropyl]oxy}-1H-indazol-5-yl)amino]-N,N-dimethyl-5,6,7,8-tetrahydro[1]benzothieno[2,3-d]pyrimidine-7-carboxamide]	8.25
C[C@@H]1COCCN1C(=O)[C@H]1CCc2c(sc3ncnc(Nc4cc5cn[nH]c5cc4O[C@@H](C)CN)c23)C1 [Example 148, {(7S)-4-[(6-{[(2S)-1-Aminopropan-2-yl]oxy}-1H-indazol-5-yl)amino]-5,6,7,8-tetrahydro[1]benzothieno[2,3-d]pyrimidin-7-yl}[(3R)-3-methylmorpholin-4-yl]methanone]	8.38
C[C@@H](N)COc1cc2[nH]ncc2cc1Nc1ncnc2sc3c(c12)CC[C@H](C(=O)N1CCOC[C@@H]1C)C3 [Example 149, {(7S)-4-[(6-{[(2R)-2-Aminopropyl]oxy}-1H-indazol-5-yl)amino]-5,6,7,8-tetrahydro[1]benzothieno[2,3-d]pyrimidin-7-yl}[(3S)-3-methylmorpholin-4-yl]methanone]	8.28
C[C@@H]1COCCN1C(=O)[C@H]1CCc2c(sc3ncnc(Nc4cc5cn[nH]c5cc4OC[C@@H](C)N)c23)C1 [Example 150, {(7S)-4-[(6-{[(2R)-2-Aminopropyl]oxy}-1H-indazol-5-yl)amino]-5,6,7,8-tetrahydro[1]benzothieno[2,3-d]pyrimidin-7-yl}[(3R)-3-methylmorpholin-4-yl]methanone]	8.14
CN(C)CCN(C)c1cc2[nH]ncc2cc1Nc1ncnc2sc3c(c12)CC[C@H](C(=O)N(C)C)C3 [Example 151, (7S)-4-[(6-{[2-(Dimethylamino)ethyl](methyl)amino}-1H-indazol-5-yl)amino]-N,N-dimethyl-5,6,7,8-tetrahydro[1]benzothieno[2,3-d]pyrimidine-7-carboxamide]	7.40
CN(C)C1CCN(c2cc3[nH]ncc3cc2Nc2ncnc3sc4c(c23)CC[C@H](C(=O)N2C[C@@H]3C[C@H]2CO3)C4)CC1 [Example 153, [(7S)-4-({6-[4-(Dimethylamino)piperidin-1-yl]-1H-indazol-5-yl}amino)-5,6,7,8-tetrahydro[1]benzothieno[2,3-d]pyrimidin-7-yl][(1S,4S)-2-oxa-5-azabicyclo[2.2.1]hept-5-yl]methanone]	7.76
CN(C)C1CCN(c2cc3[nH]ncc3cc2Nc2ncnc3sc4c(c23)CC[C@H](C(=O)N2C[C@H]3C[C@@H]2CO3)C4)CC1 [Example 154, [(7S)-4-({6-[4-(Dimethylamino)piperidin-1-yl]-1H-indazol-5-yl}amino)-5,6,7,8-tetrahydro[1]benzothieno[2,3-d]pyrimidin-7-yl][(1R,4R)-2-oxa-5-azabicyclo[2.2.1]hept-5-yl]methanone]	7.64
CC(C)N(C)C(=O)[C@H]1CCc2c(sc3ncnc(Nc4cc5cn[nH]c5cc4N4CCC(N(C)C)CC4)c23)C1 [Example 155, (7S)-4-({6-[4-(Dimethylamino)piperidin-1-yl]-1H-indazol-5-yl}amino)-N-methyl-N-(propan-2-yl)-5,6,7,8-tetrahydro[1]benzothieno[2,3-d]pyrimidine-7-carboxamide]	8.12
CCCN(C)C(=O)[C@H]1CCc2c(sc3ncnc(Nc4cc5cn[nH]c5cc4N4CCC(N(C)C)CC4)c23)C1 [Example 156, (7S)-4-({6-[4-(Dimethylamino)piperidin-1-yl]-1H-indazol-5-yl}amino)-N-methyl-N-propyl-5,6,7,8-tetrahydro[1]benzothieno[2,3-d]pyrimidine-7-carboxamide]	7.97
CCN(CCOC)C(=O)[C@H]1CCc2c(sc3ncnc(Nc4cc5cn[nH]c5cc4N4CCC(N(C)C)CC4)c23)C1 [Example 157, (7S)-4-({6-[4-(Dimethylamino)piperidin-1-yl]-1H-indazol-5-yl}amino)-N-ethyl-N-(2-methoxyethyl)-5,6,7,8-tetrahydro[1]benzothieno[2,3-d]pyrimidine-7-carboxamide]	7.67
CCN(C)C(=O)[C@H]1CCc2c(sc3ncnc(Nc4cc5cn[nH]c5cc4N4CCC(N(C)C)CC4)c23)C1 [Example 158, (7S)-4-({6-[4-(Dimethylamino)piperidin-1-yl]-1H-indazol-5-yl}amino)-N-ethyl-N-methyl-5,6,7,8-tetrahydro[1]benzothieno[2,3-d]pyrimidine-7-carboxamide]	8.00
C[C@@H]1CN(C(=O)[C@H]2CCc3c(sc4ncnc(Nc5ccc6[nH]ncc6c5)c34)C2)C[C@H](C)O1 [Example 162, [(2R,6S)-2,6-dimethylmorpholin-4-yl][(7S)-4-(1H-indazol-5-ylamino)-5,6,7,8-tetrahydro[1]benzothieno[2,3-d]pyrimidin-7-yl]methanone]	7.94
CN(C)C1CCN(c2cc3[nH]ncc3cc2Nc2ncnc3sc4c(c23)CC[C@H](C(=O)N2CC3(COC3)C2)C4)CC1 [Example 166, [(7S)-4-({6-[4-(dimethylamino)piperidin-1-yl]-1H-indazol-5-yl}amino)-5,6,7,8-tetrahydro[1]benzothieno[2,3-d]pyrimidin-7-yl](2-oxa-6-azaspiro[3.3]hept-6-yl)methanone]	7.69

These reach a higher pIC50. Values come first.

pIC50	SMILES
8.46	C[C@H](N)COc1cc2[nH]ncc2cc1Nc1ncnc2sc3c(c12)CC[C@H](C(=O)N(C)C)C3 [Example 142, (7S)-4-[(6-{[(2S)-2-Aminopropyl]oxy}-1H-indazol-5-yl)amino]-N,N-dimethyl-5,6,7,8-tetrahydro[1]benzothieno[2,3-d]pyrimidine-7-carboxamide]
8.52	C[C@H](N)COc1cc2[nH]ncc2cc1Nc1ncnc2sc3c(c12)CC[C@H](C(=O)N1CCOC[C@@H]1C)C3 [Example 143, {(7S)-4-[(6-{[(2S)-2-Aminopropyl]oxy}-1H-indazol-5-yl)amino]-5,6,7,8-tetrahydro[1]benzothieno[2,3-d]pyrimidin-7-yl}[(3S)-3-methylmorpholin-4-yl]methanone]
9.00	C[C@H](CN)Oc1cc2[nH]ncc2cc1Nc1ncnc2sc3c(c12)CC[C@H](C(=O)N1CCOC[C@H]1C)C3 [Example 144, {(7S)-4-[(6-{[(2R)-1-Aminopropan-2-yl]oxy}-1H-indazol-5-yl)amino]-5,6,7,8-tetrahydro[1]benzothieno[2,3-d]pyrimidin-7-yl}[(3R)-3-methylmorpholin-4-yl]methanone]
9.22	C[C@H](CN)Oc1cc2[nH]ncc2cc1Nc1ncnc2sc3c(c12)CC[C@H](C(=O)N(C)C)C3 [Example 152, (7S)-4-[(6-{[(2R)-1-Aminopropan-2-yl]oxy}-1H-indazol-5-yl)amino]-N,N-dimethyl-5,6,7,8-tetrahydro[1]benzothieno[2,3-d]pyrimidine-7-carboxamide]
8.72	CCCOc1cc2[nH]ncc2cc1Nc1ncnc2sc3c(c12)CC[C@H](C(=O)N1CC(O)C1)C3 [Example 159, (3-Hydroxyazetidin-1-yl){(7S)-4-[(6-propoxy-1H-indazol-5-yl)amino]-5,6,7,8-tetrahydro[1]benzothieno[2,3-d]pyrimidin-7-yl}methanone]
8.92	CC(C)Oc1cc2[nH]ncc2cc1Nc1ncnc2sc3c(c12)CC[C@H](C(=O)N1C[C@@H](C)O[C@@H](C)C1)C3 [Example 160, [(2R,6S)-2,6-dimethylmorpholin-4-yl][(7S)-4-{[6-(propan-2-yloxy)-1H-indazol-5-yl]amino}-5,6,7,8-tetrahydro[1]benzothieno[2,3-d]pyrimidin-7-yl]methanone]
8.92	COc1cc2[nH]ncc2cc1Nc1ncnc2sc3c(c12)CC[C@H](C(=O)N1C[C@@H](C)O[C@@H](C)C1)C3 [Example 161, [(2R,6S)-2,6-dimethylmorpholin-4-yl]{(7S)-4-[(6-methoxy-1H-indazol-5-yl)amino]-5,6,7,8-tetrahydro[1]benzothieno[2,3-d]pyrimidin-7-yl}methanone]
9.22	COc1cc2[nH]ncc2cc1Nc1ncnc2sc3c(c12)CC[C@H](C(=O)N1CC(F)C1)C3 [Example 163, (3-fluoroazetidin-1-yl){(7S)-4-[(6-methoxy-1H-indazol-5-yl)amino]-5,6,7,8-tetrahydro[1]benzothieno[2,3-d]pyrimidin-7-yl}methanone]
9.15	COc1cc2[nH]ncc2cc1Nc1ncnc2sc3c(c12)CC[C@H](C(=O)N1CC(F)(F)C1)C3 [Example 164, (3,3-difluoroazetidin-1-yl){(7S)-4-[(6-methoxy-1H-indazol-5-yl)amino]-5,6,7,8-tetrahydro[1]benzothieno[2,3-d]pyrimidin-7-yl}methanone]
9.70	CN(C)C(=O)[C@H]1CCc2c(sc3ncnc(Nc4cc5cn[nH]c5cc4OCCNC(=O)OC(C)(C)C)c23)C1 [Example 165, tert-butyl {2-[(5-{[(7S)-7-(dimethylcarbamoyl)-5,6,7,8-tetrahydro[1]benzothieno[2,3-d]pyrimidin-4-yl]amino}-1H-indazol-6-yl)oxy]ethyl}carbamate]
9.52	CCOc1cc2[nH]ncc2cc1Nc1ncnc2sc3c(c12)CC[C@H](C(=O)N1C[C@@H](C)O[C@@H](C)C1)C3 [Example 167, [(2R,6S)-2,6-dimethylmorpholin-4-yl]{(7S)-4-[(6-ethoxy-1H-indazol-5-yl)amino]-5,6,7,8-tetrahydro[1]benzothieno[2,3-d]pyrimidin-7-yl}methanone]
